In publication PMC11219871, “Epigenetic-based differentiation therapy for Acute Myeloid Leukemia” (Nature Communications, 2024):
Where “and” joins values, the source holds several entries; their conditions need not be identical. Identical values can stand only once. Like-named read-outs stand apart in the source and are kept apart here.

Key:
ML-2 = assay: Cell-cycle analysis; type: cell-based, human; conditions: ML-2, treatment for 48 hours; replicates 1-3 (Figure 2F)
Procedure: (§1) […] Next, the cells were washed twice with PBS and resuspended in 0.2% Tween 20 in PBS and 0.5 mg/mL Rnase A (Ribonuclease A Type III-A from bovine pancreas, Cat No. R5125, Sigma), and then incubated for 30 min at 37 °C. Subsequently, the cells were stained with 25 μg/mL of propidium iodide (Cat No P4170, Sigma) and analyzed using a BD FACSCanto flow cytometer (Becton Dickinson, San Jose, CA, USA).

MV4-11 = assay: Cell-cycle analysis; type: cell-based, human; conditions: MV4-11, 48 hours
Procedure: as §1

MOLM-13 = assay: Cell-cycle analysis; type: cell-based, human; conditions: MOLM-13, 48 hours
Procedure: as §1

HL-60 = assay: Cell-cycle analysis; type: cell-based, human; conditions: HL-60, treatment for 48 hours; replicates 1-3 (Figure 2F)
Procedure: as §1

BRD4 (BD1) = target: T1, BRD4 (BD1) (Homo sapiens, UniProt O60885); assay: Epigenetic panel (BPS Bioscience); type: binding
T1 construct: purchased BPS Bioscience; Eurofins (HDAC4, 5, 7-11)
From the text: (§2) The selectivity of CM-444 and CM-1758 against other epigenetic targets, including histone demethylase (JMJD2A, JMJD2B, JMJD2C, JMJD2D, JMJD2E, JMJD3, JMJD1A, LSD1, Jarid1A, Jarid1B, Jarid1C, FBXL10, FBXL11, JHDM1D, JMJD1B, PHF8, LSD2 and UTX); histone acetyltransferases (GCN5, P300); histone methyltransferases (G9a, GLP, MLL1, SET7/9, SUV39H1, SUV39H2, PRMT1, PRMT3, PRMT4, PRMT5, PRMT6, PRMT8, PRMT9, NSD1, NSD2, EZH1, EZH2, SETDB1, SETD2, SET8, SUV4-20H1, SMYD2, SMYD3, DOT1L, EZH2 (A677G), EZH2 (A677G), EZH2 (A738T), EZH2 (Y641S), EZH2 (P132S), EZH2 (Y641C), EZH2 (Y641F), EZH2 (Y641H), EZH2 (Y641N)); bromodomains (ATAD2B, ATAD2A, BRD1, BRD9, BPTF/FALZ, CeCR2, BRPF3, BRD3 (BD1 + BD2), BAZ2B, WDR9, TAF1 (BD2), TAF1L (BD2), TAF1L (BD1 + BD2), BRD2 (BD1), BRD2 (BD2), BRD2 (BD1 + BD2), BRD3 (BD1), BRD3 (BD2), BRD4 (BD1), BRD4 (BD2), BRD4 (BD1 + BD2), BRDT (BD1), BRDT (BD1 + BD2), CREBBP, SMARCA2A, SMARCA4/BRG1); DNA methyltranferases (DNMT1, DNMT3A/3L and DNMT3B/3L), and sirtuin histone deacetylases (SIRT1, SIRT2, SIRT3, SIRT5 and SIRT6), were determined by BPS Bioscience (http://www.bpsbioscience.com/index.ph). Binding experiments were performed in duplicate at a concentration of 10 μM.

BRPF3 = target: T2, BRPF3 (Homo sapiens, UniProt Q9ULD4); assay: Epigenetic panel (BPS Bioscience); type: binding
T2 construct: purchased BPS Bioscience; Eurofins (HDAC4, 5, 7-11)
T2 sequence (Q9ULD4 whole entry): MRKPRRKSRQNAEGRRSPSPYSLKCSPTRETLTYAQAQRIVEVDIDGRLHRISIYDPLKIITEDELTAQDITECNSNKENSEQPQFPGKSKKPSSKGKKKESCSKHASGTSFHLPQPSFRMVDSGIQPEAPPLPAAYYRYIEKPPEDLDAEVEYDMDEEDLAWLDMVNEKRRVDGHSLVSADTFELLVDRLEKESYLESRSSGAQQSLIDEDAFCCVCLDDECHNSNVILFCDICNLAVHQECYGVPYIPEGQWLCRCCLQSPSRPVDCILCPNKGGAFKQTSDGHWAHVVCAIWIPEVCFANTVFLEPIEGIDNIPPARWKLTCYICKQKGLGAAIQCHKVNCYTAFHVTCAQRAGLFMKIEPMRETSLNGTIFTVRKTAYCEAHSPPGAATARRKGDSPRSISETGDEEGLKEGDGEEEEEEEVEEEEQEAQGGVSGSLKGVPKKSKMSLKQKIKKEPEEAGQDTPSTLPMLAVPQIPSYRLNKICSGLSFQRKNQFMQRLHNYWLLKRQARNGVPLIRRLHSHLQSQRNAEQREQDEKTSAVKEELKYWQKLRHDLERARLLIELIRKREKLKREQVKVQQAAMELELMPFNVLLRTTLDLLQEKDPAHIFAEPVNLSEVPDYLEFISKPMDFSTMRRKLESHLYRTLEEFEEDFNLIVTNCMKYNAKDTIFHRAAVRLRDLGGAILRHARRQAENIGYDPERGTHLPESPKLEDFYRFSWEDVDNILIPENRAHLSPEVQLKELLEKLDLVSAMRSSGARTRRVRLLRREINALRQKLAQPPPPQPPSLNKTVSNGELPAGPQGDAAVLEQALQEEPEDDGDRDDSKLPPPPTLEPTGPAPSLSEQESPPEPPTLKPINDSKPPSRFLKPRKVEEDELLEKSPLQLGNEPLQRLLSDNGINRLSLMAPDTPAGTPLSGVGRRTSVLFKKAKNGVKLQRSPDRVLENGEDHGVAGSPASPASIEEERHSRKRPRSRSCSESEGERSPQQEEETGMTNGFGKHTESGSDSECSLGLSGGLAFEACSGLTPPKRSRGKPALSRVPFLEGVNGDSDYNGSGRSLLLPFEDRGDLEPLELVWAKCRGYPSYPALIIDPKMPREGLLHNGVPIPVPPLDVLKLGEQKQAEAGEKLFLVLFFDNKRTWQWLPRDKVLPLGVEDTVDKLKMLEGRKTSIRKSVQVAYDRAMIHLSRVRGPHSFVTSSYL
From the text: as §2

BPTF/FALZ = target: T3, BPTF/FALZ (Homo sapiens, UniProt Q12830); assay: Epigenetic panel (BPS Bioscience); type: binding
T3 construct: purchased BPS Bioscience; Eurofins (HDAC4, 5, 7-11)
From the text: as §2

TAF1L (BD2) = target: T4, TAF1L (BD2) (Homo sapiens, UniProt Q8IZX4); assay: Epigenetic panel (BPS Bioscience); type: binding
T4 construct: purchased BPS Bioscience; Eurofins (HDAC4, 5, 7-11)
T4 sequence (Q8IZX4 1523-1654 limits assumed): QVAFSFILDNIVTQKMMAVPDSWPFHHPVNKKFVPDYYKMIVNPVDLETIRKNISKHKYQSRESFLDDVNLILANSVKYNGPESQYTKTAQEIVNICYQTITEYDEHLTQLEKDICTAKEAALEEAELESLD
From the text: as §2

BRD2 (BD1) = target: T5, BRD2 (BD1) (Homo sapiens, UniProt P25440); assay: Epigenetic panel (BPS Bioscience); type: binding
T5 construct: BRD2 (BD1); purchased BPS Bioscience (contracted assay service)
T5 sequence (P25440 74-180 limits assumed): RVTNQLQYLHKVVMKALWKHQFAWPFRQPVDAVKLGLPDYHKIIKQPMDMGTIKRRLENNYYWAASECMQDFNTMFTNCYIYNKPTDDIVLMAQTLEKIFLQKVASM
From the text: as §2

ATAD2B = target: T6, ATAD2B (Homo sapiens, UniProt Q9ULI0); assay: Epigenetic panel (BPS Bioscience); type: binding
T6 construct: purchased BPS Bioscience; Eurofins (HDAC4, 5, 7-11)
From the text: as §2

CREBBP = target: T7, CREBBP (Homo sapiens, UniProt Q92793); assay: Epigenetic panel (BPS Bioscience); type: binding
T7 construct: purchased BPS Bioscience; Eurofins (HDAC4, 5, 7-11)
From the text: as §2

TAF1 (BD2) = target: T8, TAF1 (BD2) (Homo sapiens, UniProt P21675); assay: Epigenetic panel (BPS Bioscience); type: binding
T8 construct: purchased BPS Bioscience; Eurofins (HDAC4, 5, 7-11)
T8 sequence (P21675 1522-1656 limits assumed): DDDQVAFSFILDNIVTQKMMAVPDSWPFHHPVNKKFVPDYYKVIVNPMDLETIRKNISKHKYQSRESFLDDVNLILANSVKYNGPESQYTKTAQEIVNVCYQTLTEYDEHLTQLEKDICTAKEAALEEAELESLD
From the text: as §2

BRDT (BD1) = target: T9, BRDT (BD1) (Homo sapiens, UniProt Q58F21); assay: Epigenetic panel (BPS Bioscience); type: binding
T9 construct: purchased BPS Bioscience; Eurofins (HDAC4, 5, 7-11)
From the text: as §2

BRD3 (BD1+BD2) = target: T10, BRD3 (BD1+BD2) (Homo sapiens, UniProt Q15059); assay: Epigenetic panel (BPS Bioscience); type: binding
T10 construct: purchased BPS Bioscience; Eurofins (HDAC4, 5, 7-11)
T10 sequence (Q15059 29-419 limits assumed): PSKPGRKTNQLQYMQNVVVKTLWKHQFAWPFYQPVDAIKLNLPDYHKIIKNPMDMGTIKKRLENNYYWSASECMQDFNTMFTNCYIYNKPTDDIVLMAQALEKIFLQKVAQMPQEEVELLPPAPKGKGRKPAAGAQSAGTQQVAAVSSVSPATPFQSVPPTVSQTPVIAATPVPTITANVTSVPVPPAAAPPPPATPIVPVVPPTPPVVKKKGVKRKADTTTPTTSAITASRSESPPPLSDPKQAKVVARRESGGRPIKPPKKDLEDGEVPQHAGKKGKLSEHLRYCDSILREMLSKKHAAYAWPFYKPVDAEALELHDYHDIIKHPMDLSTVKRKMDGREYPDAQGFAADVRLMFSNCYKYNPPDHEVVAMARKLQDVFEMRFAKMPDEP
From the text: as §2

DNMT1 = DNMT1 (Homo sapiens, UniProt P26358); assay: Epigenetic panel (BPS Bioscience); DNMT1 TR-FRET IC50; type: biochemical
Sequence of DNMT1 (P26358 whole entry): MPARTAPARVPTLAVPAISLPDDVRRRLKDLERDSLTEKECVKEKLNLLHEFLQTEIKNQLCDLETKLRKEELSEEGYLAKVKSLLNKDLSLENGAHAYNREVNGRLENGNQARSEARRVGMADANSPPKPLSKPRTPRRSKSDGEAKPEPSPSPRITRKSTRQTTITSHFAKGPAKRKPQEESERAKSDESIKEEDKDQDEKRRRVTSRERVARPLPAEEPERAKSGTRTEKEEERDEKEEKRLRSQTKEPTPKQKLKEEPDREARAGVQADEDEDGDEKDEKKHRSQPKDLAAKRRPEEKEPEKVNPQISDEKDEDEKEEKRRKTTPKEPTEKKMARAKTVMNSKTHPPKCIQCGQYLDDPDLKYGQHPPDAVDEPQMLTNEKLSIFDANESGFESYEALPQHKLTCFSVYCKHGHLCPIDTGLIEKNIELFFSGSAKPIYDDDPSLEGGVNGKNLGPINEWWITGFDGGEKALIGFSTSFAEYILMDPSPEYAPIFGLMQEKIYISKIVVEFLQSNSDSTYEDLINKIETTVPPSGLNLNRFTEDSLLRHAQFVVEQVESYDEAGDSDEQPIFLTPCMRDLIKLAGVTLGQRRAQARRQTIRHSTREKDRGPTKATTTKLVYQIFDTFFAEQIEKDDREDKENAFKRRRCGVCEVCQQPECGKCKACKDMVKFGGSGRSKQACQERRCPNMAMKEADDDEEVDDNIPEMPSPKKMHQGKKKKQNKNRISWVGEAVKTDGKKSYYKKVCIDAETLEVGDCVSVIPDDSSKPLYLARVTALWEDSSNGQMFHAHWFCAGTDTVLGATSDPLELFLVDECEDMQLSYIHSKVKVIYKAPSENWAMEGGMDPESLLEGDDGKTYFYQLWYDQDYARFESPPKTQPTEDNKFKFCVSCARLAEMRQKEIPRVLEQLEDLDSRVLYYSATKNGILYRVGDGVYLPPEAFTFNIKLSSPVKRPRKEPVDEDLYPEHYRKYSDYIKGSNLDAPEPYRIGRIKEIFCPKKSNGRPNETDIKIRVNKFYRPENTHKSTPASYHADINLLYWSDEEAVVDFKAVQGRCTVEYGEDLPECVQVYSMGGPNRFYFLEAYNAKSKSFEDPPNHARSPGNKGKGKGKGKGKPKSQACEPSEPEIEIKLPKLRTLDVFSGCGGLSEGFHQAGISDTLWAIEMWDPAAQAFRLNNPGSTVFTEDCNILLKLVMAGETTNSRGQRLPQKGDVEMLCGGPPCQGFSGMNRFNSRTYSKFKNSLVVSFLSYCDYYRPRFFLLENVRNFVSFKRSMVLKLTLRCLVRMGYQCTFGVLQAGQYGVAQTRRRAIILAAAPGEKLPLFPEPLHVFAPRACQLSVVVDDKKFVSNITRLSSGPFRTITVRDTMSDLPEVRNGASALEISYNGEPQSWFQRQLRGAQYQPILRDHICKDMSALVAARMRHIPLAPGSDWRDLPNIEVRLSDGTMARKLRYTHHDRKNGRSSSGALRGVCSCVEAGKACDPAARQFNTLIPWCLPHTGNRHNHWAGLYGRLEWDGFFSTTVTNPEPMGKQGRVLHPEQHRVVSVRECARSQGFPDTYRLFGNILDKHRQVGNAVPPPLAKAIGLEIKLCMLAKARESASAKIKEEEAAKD
Procedure: DNMT1 and G9a IC50 values were measured using time-resolved fluorescence energy transfer assays, as described previously[18],[25],[26].
Binding experiments were performed in duplicate at a concentration of 10 μM.

hERG potassium channels = target: T11, hERG potassium channels (Homo sapiens, UniProt Q12809); assay: hERG blockade assay (whole-cell patch clamp, CHO cells); type: cell-based; conditions: for IC50: read-out: hERG binding: IC50
T11 construct: host or cells: CHO cells
T11 sequence (Q12809 whole entry): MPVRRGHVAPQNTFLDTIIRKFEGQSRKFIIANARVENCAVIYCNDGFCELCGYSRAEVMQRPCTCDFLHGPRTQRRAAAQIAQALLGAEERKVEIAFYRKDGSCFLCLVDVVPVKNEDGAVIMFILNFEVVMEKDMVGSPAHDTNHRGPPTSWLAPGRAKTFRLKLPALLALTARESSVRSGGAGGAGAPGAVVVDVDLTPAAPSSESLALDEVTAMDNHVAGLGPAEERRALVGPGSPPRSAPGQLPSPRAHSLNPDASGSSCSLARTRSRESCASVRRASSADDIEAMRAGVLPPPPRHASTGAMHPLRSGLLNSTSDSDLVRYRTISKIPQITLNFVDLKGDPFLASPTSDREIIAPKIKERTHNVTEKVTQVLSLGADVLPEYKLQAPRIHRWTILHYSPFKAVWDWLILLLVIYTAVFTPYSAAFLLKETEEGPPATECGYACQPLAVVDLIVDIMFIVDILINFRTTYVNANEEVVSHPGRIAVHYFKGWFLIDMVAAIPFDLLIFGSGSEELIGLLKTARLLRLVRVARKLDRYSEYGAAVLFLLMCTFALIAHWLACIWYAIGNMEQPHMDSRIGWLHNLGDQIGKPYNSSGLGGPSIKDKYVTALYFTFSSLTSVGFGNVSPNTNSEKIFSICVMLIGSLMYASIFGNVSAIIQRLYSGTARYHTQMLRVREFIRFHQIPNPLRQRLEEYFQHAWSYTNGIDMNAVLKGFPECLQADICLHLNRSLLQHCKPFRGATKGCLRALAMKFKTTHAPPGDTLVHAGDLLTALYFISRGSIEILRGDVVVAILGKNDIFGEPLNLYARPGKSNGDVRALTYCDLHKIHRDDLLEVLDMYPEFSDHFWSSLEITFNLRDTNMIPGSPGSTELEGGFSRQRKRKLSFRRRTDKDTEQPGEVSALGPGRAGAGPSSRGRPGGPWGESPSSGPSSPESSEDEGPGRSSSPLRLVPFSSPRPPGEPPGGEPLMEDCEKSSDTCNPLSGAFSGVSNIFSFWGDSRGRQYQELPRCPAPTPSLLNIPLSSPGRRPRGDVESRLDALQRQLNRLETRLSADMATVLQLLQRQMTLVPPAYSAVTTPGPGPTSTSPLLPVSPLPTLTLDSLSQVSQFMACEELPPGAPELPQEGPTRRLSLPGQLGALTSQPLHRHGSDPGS
Procedure: This study was conducted at Wuxi (http://www.wuxi.com/), using CHO cells with stable expression of hERG potassium channels (Sophion Biosciences, Ballerup, Denmark). Cells were cultured (F12 medium, supplemented with 10% FBS, 1% Geneticin® selective antibiotic, 89 μg/mL hygromycin B) in a humidified and air-controlled (5% CO2) incubator at 37 °C ± 2 °C. Test compounds were diluted at different concentrations (0.3 μM–30μM), with a final DMSO concentration in an extracellular solution of <0.3%. The external solution consisted of 2 mM CaCl2, 1 mM MgCl2, 4 mM KCl, 145 mM NaCl, 10 mM glucose and 10 mM HEPES at pH 7.3–7.4. The internal solution consisted of 5.37 mM CaCl2, 1.75 mM MgCl2, 120 mM KCl, 10 mM HEPES, 5 mM EGTA and 4 mM Na2ATP at pH 7.2–7.3. The assay was performed at room temperature using the whole-cell patch clamp techniques controlled with Patchmaster Pro software. For quality control, minimum seal membrane resistance was set at 500 MOhms and the minimum/maximum specific hERG current (pre-compound) was 400 pA/3000 pA. A 100-nM amount of cisapride was used as the positive control to evaluate the reliability of the test system. Results are the average of two biological replicates.

Compound	Cell number (%) G1 (ML-2)	Cell number (%) G2/M (ML-2)	Cell number (%) S (ML-2)	Cell number (%) G1 (MV4-11)	Cell number (%) G2/M (MV4-11)	Cell number (%) S (MV4-11)	Cell number (%) G1 (MOLM-13)	Cell number (%) G2/M (MOLM-13)	Cell number (%) S (MOLM-13)	Cell number (%) G1 (HL-60)	Cell number (%) G2/M (HL-60)	Cell number (%) S (HL-60)	inhibition at 10 µM (BRD4 (BD1)) [%]	inhibition at 10 µM (BRPF3) [%]	inhibition at 10 µM (BPTF/FALZ) [%]	inhibition at 10 µM (TAF1L (BD2)) [%]	inhibition at 10 µM (BRD2 (BD1)) [%]	inhibition at 10 µM (ATAD2B) [%]	inhibition at 10 µM (CREBBP) [%]	inhibition at 10 µM (TAF1 (BD2)) [%]	further results
COc1cc2nc(-c3ccc(C)o3)cc(NCC3CCN(c4ncc(C(=O)NO)cn4)CC3)c2cc1OC [CM-444, 2-[4-[[[6,7-dimethoxy-2-(5-methyl-2-furyl)-4-quinolyl]amino]methyl]-1-piperidyl]pyrimidine-5-carbohydroxamic acid]	96.26% and 93.16% and 96.12%	0.0429% and 0.75% and 2.61%	2.99% and 4.24% and 3.84%	92.37% and 89.49% and 89.94%	2.21% and 0.68% and 3.29%	6.95% and 7.22% and 7.84%	98.91% and 98.32% and 98.59%	0.29% and 0.03% and 0.73%	1.06% and 0.95% and 1.11%	96.96% and 93.22% and 91.97%	4.36% and 1.34% and 3.53%	1.70% and 3.26% and 3.67%	6	0	0	0	71	0	0	0	IC50 (BRD2 (BD1)): 30.8 µM; inhibition at 10 µM (BRDT (BD1)): 44%; inhibition at 10 µM (BRD3 (BD1+BD2)): 43%; inhibition at 10 µM (DNMT1): 96%; IC50 (DNMT1; as printed in Fig. 1B, read-out: IC50): 2.2 µM; IC50 (DNMT1; read-out: DNMT1 IC50): 2.16 µM; hERG hill slope (hERG potassium channels): 1.33; IC50 (hERG potassium channels): 16.8 µM
COc1cc2nc(-c3cc(C)oc3C)cc(NCC3CCN(c4ncc(C(=O)NO)cn4)CC3)c2cc1OC [CM-1758, 2-[4-[[[2-(2,5-dimethyl-3-furyl)-6,7-dimethoxy-4-quinolyl]amino]methyl] -1-piperidyl]pyrimidine-5-carbohydroxamic acid]	90.78% and 86.19% and 89.03%	6.71% and 3.95% and 9.23%	5.26% and 4.58% and 4.26%	84.98% and 89.31% and 85.09%	8.40% and 10.00% and 4.67%	5.02% and 6.02% and 6.51%	94.79% and 97.36% and 97.43%	0.72% and 2.84% and 0.69%	2.37% and 1.95% and 1.85%	79.37% and 83.97% and 81.85%	6.97% and 12.93% and 5.78%	7.70% and 10.26% and 11.19%	0	40	0	0	25	13	6	0	inhibition at 10 µM (BRDT (BD1)): 23%; inhibition at 10 µM (BRD3 (BD1+BD2)): 29%; inhibition at 10 µM (DNMT1): 66%; IC50 (DNMT1; read-out: DNMT1 IC50): 22.6 µM; hERG hill slope (hERG potassium channels): 0.99; IC50 (hERG potassium channels): 4.89 µM
